From patent US20250382306A1, “HETEROCYCLIC COMPOUND AS TAAR1 LIGAND AGONIST” (SHANDONG LUYE PHARMACEUTICAL CO., LTD., priority 2022, published 2025) come the findings set out here.

Molecules are shown by their SMILES. Read-outs that look alike come from different tables or passages of the source.

One data set has as its target T1, TAAR1 (Homo sapiens, UniProt Q96RJ0).
T1 construct: expressed in transfected cells; host or cells: CHO-K1 (cAMP Hunter TAAR1 Gs cell line)
T1 sequence (Q96RJ0 1-339): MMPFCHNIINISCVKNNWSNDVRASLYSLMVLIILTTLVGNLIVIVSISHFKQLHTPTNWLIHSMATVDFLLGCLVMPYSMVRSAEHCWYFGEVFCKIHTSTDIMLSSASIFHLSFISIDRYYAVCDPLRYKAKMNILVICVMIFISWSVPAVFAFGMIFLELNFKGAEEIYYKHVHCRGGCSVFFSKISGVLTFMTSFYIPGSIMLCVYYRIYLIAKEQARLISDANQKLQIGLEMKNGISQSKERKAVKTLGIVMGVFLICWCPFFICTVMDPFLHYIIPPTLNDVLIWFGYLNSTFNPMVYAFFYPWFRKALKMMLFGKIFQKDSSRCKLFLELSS
The data set is described as follows: In vitro TAAR1 functional activity (cAMP Hunter CHO-K1 TAAR1 Gs cell line, HitHunter cAMP assay). In kind it is cell-based. Conditions: chemiluminescence cAMP readout. The protocol:
Test Example 1. In Vitro Evaluation of Intrasynaptic and Extrasynaptic Functional Activities in Cells
Cell: CAMP Hunter™ CHO-K1 TAAR1 Gs Cell Line
Assay Reagent: HitHunter cAMP Assay Detection Kit
Experimental Instrument: PerkinElmer Envision™ Chemiluminescence Signal Detector
Experimental method: cell treatment: The cAMP Hunter cell strain was cultured at 37° C. with 5% CO2 to 70-80% confluence. The cells were harvested, and the cell density was adjusted to 1.5×10^4 cells/mL. The cells were seeded in a white-wall 384-well microwell plate at a volume of 20 μL, and incubated at 37° C. with 5% CO2 overnight. The cell medium was discarded, and 15 μL of 2:1 HBSS/10 mM Hepes:cAMP XS+Ab reagent was added to each well. The mother solution of the sample was diluted with an assay buffer in a concentration gradient to a 4× sample, and 5 μL of the 4× sample was added to each well. The plate was incubated at 37° C. or room temperature for 30 or 60 min. […] 20 μL of cAMP XS+EA reagent was added to each well, and the plate was incubated at room temperature for 3 h. The chemiluminescence signal was read using a PerkinElmer Envision™ detector.
Data analysis: EC50 was calculated using CBIS data analysis software (ChemInnovation, CA). The activity percentage was calculated using the following formula: % activity=100%×(test sample average RLU−solvent control average RLU)/(maximum control average RLU−solvent control average RLU).
In general terms: cAMP levels reflect the balance of adenylyl cyclase and phosphodiesterase activity.

A short description of data set [1]: Pharmacokinetic study in rats. In kind it is in vivo, SD rats. The protocol: Test Example 2. Pharmacokinetic Study in Rats
Rat: SD Rats Weighing 200-250 g
Reagent: acetonitrile, MERCK; methanol, MERCK; formic acid, Sigma; tolbutamide, Sigma.
Instrument: water purification equipment, Millipore; electronic balance, METTLER TOLEDO; high-speed benchtop centrifuge, Thermno; water bath thermostatic oscillator, Shanghai Yiheng Technical Co., Ltd.; vortex oscillator, Thermno; liquid chromatography-mass spectrometry, AB SCIEX.
Method: The SD rats were dosed intravenously (IV) and intragastrically (IG), 3 SD rats in each group. Compounds 1-b, 2-a and L27 were separately administered, and the vehicles were DMSO and Tween 80. […] Whole blood samples were separately collected at 0, 5 m (intravenous), 15 m, 30 mi, 1 h, 2 h, 4 h, 6 h, 8 h, 12 h, and 24 h. The whole blood was placed in a heparinized EP tube and centrifuged at 13,500 rpm for 10 min to separate the plasma. After pretreatment, the plasma was analyzed by LC-MS/MS to determine the concentration of the test compound in the plasma.

The test system of data set [2] is MK801-induced overactivity. The data set is described as follows: Pharmacodynamic study in mice, MK-801 overactivity model (Test Example 5). Conditions: 3 mg/kg intragastric. It is filed as in vivo, C57 mice. The protocol: (§1) 4.1. model preparation: MK-801 induces overactivity in mice and is commonly used for preclinical evaluation of antipsychotics. The modeling method in this test was: The mice were injected with MK-801 intraperitoneally in at single dose of 0.8 mg/kg.
(§2) The mice were randomly divided into groups. At the start of the test, the test samples were administered intragastrically at an single dose according to the doses shown in Table 5, and the mice were placed in an activity chamber. After 30 min, each mouse was injected intraperitoneally with 0.8 mg/kg of MK-801 for modeling, and placed in the activity chamber again. The movement distance (mm) of the mice after modeling (i.e., within 30-60 min after administration) was recorded and analyzed using a TopScan monitoring system.
(§3) […] The total movement distance of the mice after modeling (30-60 min after administration) was recorded.
(§4) Data analysis and processing were carried out using Graphpad 5.0 software. ANOVA test was used to compare the total movement distance between each administration group and model group within 30-60 min.
Test Example 5. Pharmacodynamic Study in Mice
5.1. Experimental grouping: The mice were randomly divided into model group, 1-b group, and 2-a group, 5 animals in each group, as shown in Table 6. The model preparation, test method, observation of indexes and statistical method were the same as those in Test Example 4.

Data set [3] concerns MK801-induced overactivity. Description: Pharmacodynamic study in mice, MK-801 overactivity model (Test Example 4). In kind it is in vivo. Conditions: C57 mice, L27 hydrochloride 16 mg/kg intragastric, MK-801 0.8 mg/kg i.p., 30-60 min after administration; p<0.05 vs model group 63052.14±21618.80 mm. On the procedure: Test Example 4. Pharmacodynamic Study in Mice
Mouse: C57 mice weighing 20-22 g
Instrument: electronic balance, METTLER TOLEDO; TopScan monitoring system.
as §1
4.2. Experimental grouping: The mice were randomly divided into model group, 1-b group, and L27 group, 10 animals in each group, as shown in Table 5.
as §2, §3, §4

Where [4] appears, read: cAMP Hunter CHO-K1 TAAR1 Gs cell line, read-out: EC50.
Setting [5] is: EC50, cAMP Hunter CHO-K1 TAAR1 Gs cell line.

The EC50 is the concentration at which the effect is half-maximal.

With `CNC[C@H]1SCCc2ccsc21` [Compound 40-b], the EC50 at TAAR1 (setting [4]) came out at 0.522 µM.

With `CN1CCc2ccsc2C1CN` (single isomer, unassigned) [Compound 42-b], the EC50 at TAAR1 (setting [4]) is 0.244 µM.

On to `NC[C@H]1NCCc2ccsc21` [Compound 41-b], for which, on TAAR1 (setting [4]), the EC50 worked out at 0.424 µM.

Regarding `CNCC1OC(C)(C)Cc2ccsc21` (centres unmarked) [Compound 34], the half-maximal effective concentration (EC50) at TAAR1 (setting [4]) stood at 1.25 µM.

Consider `CNCC1OCC(c2ccccc2)c2ccsc21` (single isomer, unassigned) [Compound 32-a], for which, at TAAR1 (setting [4]), the EC50 was > 10 µM.

As for `FCCOc1ccsc1C1CNCCO1` (centres unmarked) [Compound 60], the EC50 on TAAR1 (setting [5]) is 9.8 µM.

On to `NCC1SCCc2ccsc21` (single isomer, unassigned) [Compound 43-a], for which, on TAAR1 (setting [4]), the half-maximal effective concentration (EC50) is > 10 µM.

On to `COc1ccc([C@H]2CNCCO2)s1` [Compound 12-b], for which the response at TAAR1 (setting [5]) was half-maximal at 1.59 µM (EC50).

For the compound `CNCC1OCC(c2ccccc2)c2ccsc21` (single isomer, unassigned) [Compound 32-d], at TAAR1 (setting [4]), the concentration for a half-maximal effect (EC50) is > 10 µM.

`CNCC1OC(COC)Cc2ccsc21` (centres unmarked) [Compound 30]: the EC50 on TAAR1 (setting [4]) was > 10 µM.

Consider `CNCC1OC(C)Cc2ccsc21` (single isomer, unassigned) [Compound 28-a], for which, at TAAR1 (setting [4]), the EC50 was > 10 µM.

As to `Fc1ccc(C2CNCCO2)s1` (centres unmarked) [Compound 9], on TAAR1 (setting [4]), the EC50 came to 0.734 µM.

At TAAR1 (setting [5]), `Fc1csc(C2CNCCO2)c1` (centres unmarked) [Compound 8] came in with an EC50 of 0.295 µM.

With `FC(F)(F)COc1ccsc1C1CNCCO1` (centres unmarked) [Compound 20], the EC50 on TAAR1 (setting [4]) came to 4.72 µM.

As to `c1cc(C2CC2)c(C2CNCCO2)s1` (centres unmarked) [Compound 59], the EC50 at TAAR1 (setting [4]) was determined as 2.91 µM.

For `CNC[C@@H]1NCCc2ccsc21` [Compound 38-a], the EC50 at TAAR1 (setting [4]) was > 10 µM.

As to `COc1csc([C@@H]2CNCCO2)c1` [Compound 11-a], the EC50 on TAAR1 (setting [5]) is > 10 µM.

In the case of `CN1CCc2ccsc2C1CN` (single isomer, unassigned) [Compound 42-a], the 50% effective concentration (EC50) at TAAR1 (setting [4]) is > 10 µM.

For the compound `CC(C)Oc1ccsc1C1CNCCO1` (centres unmarked) [Compound 15], on TAAR1 (setting [5]), the EC50 is > 10 µM.

`CN1CCN2CCc3ccsc3[C@H]2C1` [Compound 2-b]: the EC50 at TAAR1 (setting [4]) is > 10 µM.

Turning to `NC[C@@H]1NCCc2ccsc21` [Compound 41-a], the EC50 at TAAR1 (setting [4]) is 9.1 µM.

As to `OC[C@H]1OCCc2ccsc21` [Compound 39-a], the EC50 on TAAR1 (setting [4]) is > 10 µM.

As to `CNC[C@H]1NCCc2ccsc21` [Compound 38-b], the EC50 on TAAR1 (setting [4]) is 7.96 µM.

For the compound `NCC1SCCc2ccsc21` (single isomer, unassigned) [Compound 43-b], the EC50 at TAAR1 (setting [4]) was determined as 0.031 µM.

Take `CNCC1OC(C)Cc2ccsc21` (single isomer, unassigned) [Compound 28-b]: on TAAR1 (setting [4]), the 50% effective concentration (EC50) stood at 1.84 µM.

`CN1CCN2CCc3ccsc3[C@@H]2C1` [Compound 2-a]: the 50% effective concentration (EC50) at TAAR1 (setting [4]) is 4.4 µM. In addition, the “Exposure and bioavailability (conclusion)” value in data set [1] (rat, in vivo) was “relatively high exposure and bioavailability”. Also, the “effect on MK801-induced overactivity (conclusion)” value in data set [2] was “good inhibition effect”. Moreover, the “total movement distance after modeling” value in data set [2] (MK-801 0.8 mg/kg i.p., 30-60 min after administration, p<0.05 vs model group 101535.71±26076.11 mm) is recorded as 9161.61±4711.10 mm.

`COc1ccc([C@@H]2CNCCO2)s1` [Compound 12-a]: the EC50 at TAAR1 (setting [5]) was > 10 µM.

Consider `CNCC1OCC(C)(C)c2ccsc21` (centres unmarked) [Compound 35], for which the EC50 on TAAR1 (setting [4]) was > 10 µM.

As for `CC(OC(=O)C(C)C)OC(=O)N1CCN2CCc3ccsc3[C@@H]2C1` (some centres unmarked) [Compound L27], in data set [1] (SD rats, after intragastric L27 9 mg/kg), the “Detection of L27 in plasma” value was “L27 was not detected”. Also, in data set [3], the “total movement distance after modeling” value worked out at 8100.56±7787.37 mm.

In the case of `CNCC1OCC(c2ccccc2)c2ccsc21` (single isomer, unassigned) [Compound 32-c], the EC50 at TAAR1 (setting [4]) was > 10 µM.

For `CNC[C@@H]1SCCc2ccsc21` [Compound 40-a], the EC50 on TAAR1 (setting [4]) is > 10 µM.

For the compound `OC[C@@H]1OCCc2ccsc21` [Compound 39-b], on TAAR1 (setting [4]), the EC50 is > 10 µM.

Compound `COc1csc([C@H]2CNCCO2)c1` [Compound 11-b] showed an EC50 at TAAR1 (setting [5]) of 2.16 µM.

With `CNCC1c2sccc2CCN1C` (centres unmarked) [Compound 61], the half-maximal effective concentration (EC50) at TAAR1 (setting [4]) was > 10 µM.

`c1cc2c(s1)[C@H]1CNCCN1CC2` [Compound 1-a]: the EC50 at TAAR1 (setting [4]) came out at 9.12 µM.

As for `COc1ccsc1C1CNCCO1` (single isomer, unassigned) [Compound 10-a], the concentration for a half-maximal effect (EC50) on TAAR1 (setting [4]) was 0.028 µM.

Consider `CNCC1OCCc2ccoc21` (centres unmarked) [Compound 37], for which the EC50 on TAAR1 (setting [4]) is 1.23 µM.

On to `CNCC1OCC(c2ccccc2)c2ccsc21` (single isomer, unassigned) [Compound 32-b], for which, on TAAR1 (setting [4]), the EC50 is > 10 µM.

As for `COc1ccsc1C1CNCCO1` (single isomer, unassigned) [Compound 10-b], the EC50 on TAAR1 (setting [4]) came out at 0.386 µM.

In the case of `FC(F)COc1ccsc1C1CNCCO1` (centres unmarked) [Compound 19], at TAAR1 (setting [5]), the EC50 was > 10 µM.
